Assay results reported in patent EP3381898A1, “SYMMETRICAL TRIS-ARYL-AMIDE DERIVATIVES AND THEIR USE AS ANTI-HEPARANASE” (priority 2017, dated 2018).
Read-outs that look alike come from different tables or passages of the source.

What was measured:
heparanase = target: T1, heparanase (Homo sapiens, UniProt Q9Y251); experiment: AGA*IA assay: heparanase-catalyzed fondaparinux cleavage, colorimetric (WST-1); type: biochemical
T1 sequence (Q9Y251 158-543 limits assumed): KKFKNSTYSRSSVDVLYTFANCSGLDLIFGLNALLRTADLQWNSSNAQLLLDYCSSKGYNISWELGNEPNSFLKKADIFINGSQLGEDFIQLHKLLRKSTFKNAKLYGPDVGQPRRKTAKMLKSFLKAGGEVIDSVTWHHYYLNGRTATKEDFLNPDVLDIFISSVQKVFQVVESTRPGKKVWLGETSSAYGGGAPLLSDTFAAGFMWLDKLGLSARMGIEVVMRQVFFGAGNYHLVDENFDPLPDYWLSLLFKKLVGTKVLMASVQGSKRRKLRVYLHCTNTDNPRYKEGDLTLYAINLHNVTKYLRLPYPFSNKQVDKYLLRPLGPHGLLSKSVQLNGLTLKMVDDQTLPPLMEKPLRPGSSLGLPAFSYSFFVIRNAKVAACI
T1 sequence (Q9Y251 36-109 limits assumed): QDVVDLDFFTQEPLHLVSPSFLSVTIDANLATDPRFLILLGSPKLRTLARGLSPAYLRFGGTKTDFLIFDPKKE

[1] = tested on: HT1080 (human fibrosarcoma); experiment: SRB Cell Cytotoxicity Assay (cell proliferation, 72h); type: cell-based; conditions: HT-1080, 72 h, read-out: Concentration (µM) of test compounds at which the cell growth is inhibited by 50 %. HT1080
Description: (§1) SRB Cell Cytotoxicity Assay is an assay based upon the quantitative staining of cellular proteins by sulforhodamine B (SRB). This assay can be used for high-throughput drug screening ([…], Nature Protocol. 2006, 1, 112). Sulforhodamine B is an anionic aminoxanthene dye that forms an electrostatic complex with the basic amino acid residues of proteins under moderately acid conditions, which provides a sensitive linear response. […] Inhibition of cell proliferation was then measured by the classical colorimetric SRB Cell Cytotoxicity assay. Absorbance was measured by spectrophotometer at a wavelength of 510 nm and cell proliferation was determined as percent with respect to control cells (cells treated with the vehicle alone). EC50 values were then determined by GraphPad Prism.

[2] = tested on: U2OS (human osteosarcoma); experiment: as above; type: cell-based; conditions: 72 h, read-out: Concentration (µM) of test compounds at which the cell growth is inhibited by 50 %. U2OS
Description: as §1

[3] = tested on: U87MG (human glioblastoma astrocytoma); experiment: as above; type: cell-based; conditions: U-87 MG, 72 h, read-out: Concentration (µM) of test compounds at which the cell growth is inhibited by 50 %. U87MG
Description: as §1

FGF-1 = experiment: Real-Time Quantitative PCR of mRNA gene expression in HT1080 cells; type: cell-based, human; conditions: 24 h, 2.5 uM, mean value
Description: (§2) To evaluate the effect of heparanase inhibitors on the tumor transcription of genes encoding for proangiogenic factors, such as FGF1/2, VEGF, MMP-9, HSPE-1, the relative mRNA levels were analyzed by quantitative Real-Time Quantitative PCR.
(§3) To perform the assay, HT1080 (human fibrosarcoma) cells were cultured in complete medium containing 10%FCS (fetal calf serum). Cells were plated in 24-well plates and treated at fixed concentration (i.e., highest non-toxic concentration) of test compounds. After 24 h, cells were detached, collected and total RNA extracted by RNeasy Mini Kit (QIAGEN). Following reverse transcription step, FGF1/2, VEGF, MMP-9, HSPE-1 mRNA levels, were quantified by qPCR using the advanced Universal SYBR Green Supermix (Bio Rad) and ABI PRISM 7900HT Thermal Cycler System (Perkin Elmer), according to the manufacturer's instructions. Appropriate no-RT and non-template controls were included in each 96-well PCR reaction, and dissociation analysis was performed at the end of each run to confirm the specificity of the reaction. Relative levels of RNA were calculated using the ddCt method. Standard curve and sample data were run in duplicate. In Table 4 a mean value is reported.

FGF-2 = experiment: as above; type: cell-based, human; conditions: 24 h, 2.5 uM, mean value
Description: as §2, §3

HPSE-1 = experiment: as above; type: cell-based, human; conditions: 24 h, 2.5 uM, mean value
Description: as §2, §3

MMP-9 = experiment: as above; type: cell-based, human; conditions: 24 h, 2.5 uM, mean value
Description: as §2, §3

VEGF = experiment: as above; type: cell-based, human; conditions: 24 h, 2.5 uM, mean value
Description: as §2, §3

[4] = tested on: genes encoding for proangiogenic factors; experiment: Real-Time Quantitative PCR in HT1080 cells, summary statement for all factors; type: cell-based, human; conditions: 2.5 µM, result in words
Description: as §2
as §3, with “reported. […]” for “reported.”

## Cn1cc(NC(=O)c2ccc(Oc3ccc(C(=O)Nc4cc(C(=O)Nc5cccc(CC(=O)N[C@@H](Cc6ccccc6)C(=O)O)c5)n(C)c4)cc3)cc2)cc1C(=O)Nc1cccc(CC(=O)N[C@@H](Cc2ccccc2)C(=O)O)c1 [Compound 36e, (2S,2'S)-2,2'-((2,2'-(((4,4'-((4,4'-Oxybis(benzoyl))bis(azanediyl))bis(1-methyl-1H-pyrrole-2,2'-carbonyl))bis(azanediyl))bis(3,1-phenylene))bis(acetyl))bis(azanediyl))bis(3-phenylpropanoic acid)]
heparanase; AGA*IA screening, read-out: anti-heparanase activity
  IC50: < 500 nM
heparanase; Table 1, range activity classes, AGA*IA test on Fondaparinux, read-out: AGAIA assay IC50
  IC50: 50 to 490 nM
heparanase; Table 2, classes as in Table 1, read-out: AGA*IA assay
  IC50: 50 to 490 nM
[1]
  EC50: > 2.5 µM
[2]
  EC50: > 2.5 µM
[3]
  EC50: > 2.5 µM
FGF-1
  Gene Expression (% mRNA vs. control) FGF-1: ~ 62%
FGF-2
  Gene Expression (% mRNA vs. control) FGF-2: ~ 64%
HPSE-1
  Gene Expression (% mRNA vs. control) HPSE-1: ~ 88%
MMP-9
  Gene Expression (% mRNA vs. control) MMP-9: ~ 50%
VEGF
  Gene Expression (% mRNA vs. control) VEGF: ~ 51%
[4]
  inhibition of genes expression encoding for proangiogenic factors: significant inhibition
